Data reported in US20020016299A1, “APOPTOSIS INDUCERS” (priority 1996, published 2002).
*1 amine or outer side, *2 acyl side, *3 side chain or, on linkers, in order; H or OH if unused. Where a SMILES comes first, the peptide text is derived from it. Bridges are numbered along the chain shown (N, C = ends). Roman numbers before positions name the chains, in order. [ ]: non-standard residue; d: D form. Actinocin(9to1) = Cc1c2oc3c(C)ccc(C(=O)[*:1])c3nc-2c(C(=O)[*:2])c(N)c1=O; NMeV = CN[C@H](C(=O)O)C(C)C; Sar = CNCC(=O)O

Tested on: HL-60 (ATCC CL-240)
Test: Apoptosis inducing activity: microscope observation and living cell count of HL-60 culture
Assay type: cell-based
Settings: HL-60 cells; for activity of suppressing the growth of cancer cells: method of Example 1-(4)
Experimental: Apoptosis inducing activity of the above fraction B and the pure product mentioned in Example 1-(3) was measured as follows. Thus, 0.5 ml of aqueous solution of the fraction B or of said pure product was added to 2.5×10^5 cells/4.5 ml of HL-60 (ATCC CL-240) cultured in an RPMI 1640 medium containing 10% of fetal calf serum and incubated at 37° C. for 48 hours. At the same time, distilled water and an Actinomycin D solution (10 μg/ml) which was known to have an apoptosis inducing activity were added to prepare control samples. Formation of apoptic bodies, contraction of cells and aggregation of nuclei were observed by naked eye under a microscope whereby the living cell numbers were counted. When such phenomena were observed and a reduction in living cell numbers was recognized, it was decided that an apoptosis inducing activity was positive.
Each of the concentrated extracts of Lyophyllum ulmarium was diluted with a 75% or 50% aqueous solution of ethanol. The diluted solution was assayed by an MTT method mentioned in Example 7. […] Thus, it was confirmed that, under the conditions of extracting with a 75% aqueous solution of ethanol and a 50% aqueous solution of ethanol, substances which are active for suppressing the growth of cancer cells were extracted. Further, an apoptosis inducing activity was measured using those concentrated extracts of Lyophyllum ulmarium. Thus, 25 μl of each of the above-mentioned concentrated extracts was used as a sample, ethanol was evaporated therefrom, the residue was added to 2.5×10^5 HL-60 cells/4.5 ml which were incubated in an RPMI 1640 medium containing 10% of fetal calf serum and incubation was conducted at 37° C. for 48 hours. At the same time, control samples were prepared by adding distilled water and an Actinomycin D solution (10 μg/ml) which was known to have an apoptosis inducing activity. Formation of apoptic bodies, contraction of cells and aggregation of nuclei were observed by naked eye under an optical microscope and the numbers of living cells were counted. When such a phenomenon was observed and a reduction in living cell numbers was noted, the sample was judged to have an apoptosis inducing activity.

[1] = 37° C., 48 hours, apoptic bodies, contraction of cells, aggregation of nuclei and reduction in living cell numbers

Compound | apoptosis inducing activity (Actinomycin D solution (10 μg/ml) added as control sample) | activity of suppressing the growth of cancer cells (37° C., 48 hours) | apoptosis inducing activity [1]
Cc1c2oc3c(C)ccc(C(=O)N[C@@H]4C(=O)N[C@H](C(C)C)C(=O)N5CCC[C@H]5C(=O)N(C)CC(=O)N(C)[C@@H](C(C)C)C(=O)O[C@@H]4C)c3nc-2c(C(=O)N[C@@H]2C(=O)N[C@H](C(C)C)C(=O)N3CCC[C@H]3C(=O)N(C)CC(=O)N(C)[C@@H](C(C)C)C(=O)O[C@@H]2C)c(N)c1=O [Actinomycin D, reference compound] (I: T[dV]P[Sar][NMeV] / II: T[dV]P[Sar][NMeV]; ester I:1-I:C, II:1-II:C; linker I:N-II:N via Actinocin(9to1)) | apoptosis inducing activity was confirmed |  | 
Monogalactosyl diglyceride |  | confirmed | strong apoptosis inducing action
digalactosyl diglyceride |  | confirmed | strong apoptosis inducing action
monogalactosyl diglyceride |  | confirmed | strong apoptosis inducing action
